Test results as given in ChEMBL document CHEMBL5352506, “The Zinc-Binding Group Effect: Lessons from Non-Hydroxamic Acid Vorinostat Analogs” (J Med Chem, 2023).

Tests used:
Histone deacetylase 2 = Histone deacetylase 2 (Homo sapiens, UniProt Q92769); assay: Inhibition of human recombinant HDAC2 using ArgHisLysLys(Ac) as substrate by fluorescence based analysis
Histone deacetylase 7 = biological target: T1, Histone deacetylase 7 (Homo sapiens, UniProt Q8WUI4); assay: Inhibition of human recombinant HDAC7 using ArgHisLysLys(Ac) as substrate by fluorescence based analysis
T1 sequence (Q8WUI4 whole entry): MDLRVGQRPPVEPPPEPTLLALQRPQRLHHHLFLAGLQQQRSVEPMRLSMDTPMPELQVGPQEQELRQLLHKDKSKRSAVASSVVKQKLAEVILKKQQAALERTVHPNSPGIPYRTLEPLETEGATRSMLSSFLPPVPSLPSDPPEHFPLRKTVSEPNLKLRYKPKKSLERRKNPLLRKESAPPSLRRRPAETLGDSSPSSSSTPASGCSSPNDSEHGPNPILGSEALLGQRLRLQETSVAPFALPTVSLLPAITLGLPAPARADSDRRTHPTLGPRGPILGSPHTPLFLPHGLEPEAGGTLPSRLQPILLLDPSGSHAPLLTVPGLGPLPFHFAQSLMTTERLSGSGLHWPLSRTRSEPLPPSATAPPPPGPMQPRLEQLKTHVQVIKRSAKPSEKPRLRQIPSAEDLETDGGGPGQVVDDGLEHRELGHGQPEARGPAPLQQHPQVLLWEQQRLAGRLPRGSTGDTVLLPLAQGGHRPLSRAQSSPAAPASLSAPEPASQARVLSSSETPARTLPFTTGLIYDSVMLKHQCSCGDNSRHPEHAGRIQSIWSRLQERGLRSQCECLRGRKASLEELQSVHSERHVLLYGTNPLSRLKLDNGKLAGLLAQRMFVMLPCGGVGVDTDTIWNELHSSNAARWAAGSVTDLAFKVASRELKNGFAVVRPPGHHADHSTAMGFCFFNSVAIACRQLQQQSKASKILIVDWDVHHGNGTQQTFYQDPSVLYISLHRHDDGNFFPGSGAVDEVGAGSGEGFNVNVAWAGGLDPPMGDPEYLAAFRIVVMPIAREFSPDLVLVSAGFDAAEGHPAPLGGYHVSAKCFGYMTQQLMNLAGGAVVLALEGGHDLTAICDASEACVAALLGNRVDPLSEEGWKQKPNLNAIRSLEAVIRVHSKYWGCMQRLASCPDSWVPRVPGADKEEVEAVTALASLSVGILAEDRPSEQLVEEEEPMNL

[1] = biological target: T2, Polyamine deacetylase HDAC10 (Homo sapiens, UniProt Q969S8); assay: Inhibition of human recombinant HDAC10 using ArgHisLysLys(Ac) as substrate by fluorescence based analysis
T2 sequence (Q969S8 whole entry): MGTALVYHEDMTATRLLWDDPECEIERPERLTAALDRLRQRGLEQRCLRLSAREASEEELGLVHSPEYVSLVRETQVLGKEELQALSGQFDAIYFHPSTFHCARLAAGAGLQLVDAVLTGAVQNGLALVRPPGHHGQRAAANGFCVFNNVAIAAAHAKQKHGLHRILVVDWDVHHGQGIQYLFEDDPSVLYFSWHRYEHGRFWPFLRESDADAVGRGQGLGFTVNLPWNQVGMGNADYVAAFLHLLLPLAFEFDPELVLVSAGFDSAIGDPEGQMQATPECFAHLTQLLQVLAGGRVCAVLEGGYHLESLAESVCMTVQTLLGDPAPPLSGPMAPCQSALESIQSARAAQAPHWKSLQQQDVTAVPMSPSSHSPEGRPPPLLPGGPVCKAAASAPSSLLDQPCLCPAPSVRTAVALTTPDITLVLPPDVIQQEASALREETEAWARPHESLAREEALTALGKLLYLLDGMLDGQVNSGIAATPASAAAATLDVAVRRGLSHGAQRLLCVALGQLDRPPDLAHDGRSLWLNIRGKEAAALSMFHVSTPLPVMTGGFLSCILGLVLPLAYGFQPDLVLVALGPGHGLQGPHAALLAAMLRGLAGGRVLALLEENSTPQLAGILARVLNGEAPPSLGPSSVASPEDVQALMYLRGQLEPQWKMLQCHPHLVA

Measured: IC50

Histone deacetylase 2, sequence (Q92769 whole entry): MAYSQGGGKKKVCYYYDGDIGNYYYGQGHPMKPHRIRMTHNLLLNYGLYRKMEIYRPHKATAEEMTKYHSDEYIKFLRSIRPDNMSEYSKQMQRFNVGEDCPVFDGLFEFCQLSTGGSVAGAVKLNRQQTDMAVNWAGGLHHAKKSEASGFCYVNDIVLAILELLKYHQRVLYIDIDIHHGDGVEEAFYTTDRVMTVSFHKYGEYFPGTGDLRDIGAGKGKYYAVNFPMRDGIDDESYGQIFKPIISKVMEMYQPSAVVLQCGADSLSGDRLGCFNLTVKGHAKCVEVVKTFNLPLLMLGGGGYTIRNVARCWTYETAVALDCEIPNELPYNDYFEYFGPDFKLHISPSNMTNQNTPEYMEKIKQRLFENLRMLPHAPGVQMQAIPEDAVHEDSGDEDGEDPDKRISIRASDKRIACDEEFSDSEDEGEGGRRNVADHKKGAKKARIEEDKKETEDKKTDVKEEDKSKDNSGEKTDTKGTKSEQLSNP

O=C(CCCCCC1CNC1=O)Nc1ccccc1 (configuration not stated)
> 1000 µM: Histone deacetylase 2 | Histone deacetylase 7 | [1]

O=C(CCCCC[C@@H]1CN(O)C1=O)Nc1ccccc1
> 1000 µM: Histone deacetylase 2 | Histone deacetylase 7 | [1]

Nc1ccccc1N1CC(CCCCCC(=O)Nc2ccccc2)C1=O (configuration not stated)
> 1000 µM: Histone deacetylase 2 | Histone deacetylase 7 | [1]

O=C(CCCCC[C@H]1CN(O)C1=O)Nc1ccccc1
> 1000 µM: Histone deacetylase 2 | Histone deacetylase 7 | [1]
